Reference: US20260226493A1, “HERBICIDE RESISTANT PLANTS” (SYNGENTA CROP PROTECTION AG, priority 2023, published 2026)

Legend:
Quercus robur BioDA = test: BioDA enzyme activity with DMSO or herbicide in vitro; format: biochemical; settings: 0.5 μM; Quercus robur BioDAΔMTP
Text: (§1) A pet-24 plasmid containing a DNA sequence encoding each identified variant mutant of BIO3-BIO1 derived from Arabidopsis thaliana from example 5 above, as shown in Table 13 below and as shown in full in SEQ ID NOs: 15 to 155, codon-optimised for expression in E. coli, with an N-terminal 6×His-tag and thrombin cleavage site and under control of a T7 promoter, and was synthesised by Twist Bioscience, in a similar manner to SEQ ID NO:311. These plasmids were then expressed in E. coli BL21 (DE3) bioA with 50 μg/mL kanamycin and 25 μg/mL chloramphenicol selection. Overnight cultures grown at 37° C. were used to inoculate 8×500 mL AIM in shake flasks at a ratio of 1:100. Cultures were grown at 37° C., 200 rpm for 3.5 hours and then overnight at 20° C. Cells were harvested by centrifugation for 30 minutes at 10 000 g. Cells were stored at −80° C. until extraction. 30 g of cell pellet from was thawed in 120 mL of IMAC buffer A (20 mM HEPES pH7.5, 25 mM imidazole, 500 mM sodium chloride, 0.15 mM pyridoxal phosphate, 0.5 mM TCEP, 1× complete Protease Inhibitor Tablet (Roche)). The resuspension was passed through a cell disrupter at 18 000 PSI and centrifuged at 50 000 g for 25 minutes at 4° C. The His-tagged BIO3-BIO1 protein was purified from the extract supernatant on an AKTA avant chromatography system (Cytiva) using a HisTrap FF column and eluted in IMAC buffer B ((20 mM HEPES pH7.5, 500 mM imidazole, 500 mM sodium chloride, 0.15 mM pyridoxal phosphate, 0.5 mM TCEP) followed by SEC using a HiLoad 26/60 Superdex200 column in SEC buffer (25 mM HEPES pH7.5, 150 mM sodium chloride, 0.15 mM pyridoxal phosphate, 0.5 mM TCEP). Protein concentration was measured and calculated using the absorbance at 280 nm. Extracts were diluted 1 in 4 and 10 uL was analysed by SDS PAGE.
(§2) To measure BIO3-BIO1 mutant enzyme activity in the presence of herbicide, herbicides were incubated with 20 μL of enzyme mix (100 mM EPPS pH 8.6, 0.1 mM pyridoxal phosphate, 0.1 mg/mL BSA, 50 nM BIO3-BIO1 enzyme) for 10 minutes at 20° C. in a well of a 96-well half-area black plate, followed by the addition of 20 μL of substrate mix (final concentration of 100 mM EPPS pH 8.6, 0.1 mM pyridoxal phosphate, 0.1 mg/mL BSA, 100 μM spermidine, 20 μM KAPA, 100 mM NaCO3) and further incubation for 75 minutes at 20° C. The reaction was terminated by the addition of 50 μL of derivatisation mix (final concentration of 250 mM borate NaOH pH 9.4, 3.6 mM o-phthalaldehyde, 7 mM β-mercaptoethanol, 17% (v/v) ethanol, 3.6% (v/v) methanol). The fluorescent product produced by the reaction of DAPA with o-phthalaldehyde and 7 mM β-mercaptoethanol was measured at 470 nm after excitation at 410 nm. The percentage inhibition was calculated as the activity in the presence of one of three concentrations of each herbicide compound A to M (note that the compounds labelled as A to M are identified hereinabove in the relevant section of the description) as a percentage of the activity in DMSO (Table 12 and 13). The percentage activity versus WT was also calculated and is shown in Table 13 and 14 (NT indicates mutation not tested in table 13, note that these mutations are tested at different compound concentrations for compounds L, M and C, and the results are shown in table 14).
(§3) The activity of various wild-type BioDA and variant enzymes was also tested when treated with DMSO or herbicide in vitro.
(§4) Protein of Schizosaccharomyces japonicus BioDA (SEQ ID NO:13), Nannochloropsis gaditana BioDA (SEQ ID NO:3), Selaginella moellendorffii BioDA (SEQ ID NO:319), Quercus robur BioDA (SEQ ID NOA11), Ostreococcus tauri BioDA (SEQ ID NO:9), and the variants of Ostreococcus tauri BioDA A374D, F332A and P407A (SEQ ID Nos:321-323) was prepared using the method in Example 6. BioDA enzyme activity in the presence of herbicide or DMSO in vitro for each of the proteins was assayed according to the enzyme assay method above. The results are shown in Table 26 provided below in the “TABLES” section.

[1] = system: Schizosaccharomyces japonicus BioDA; test: as above; format: biochemical
Text: as §1, §2, §3, §4

Bacillus subtilis BioA = test: BioA enzyme activity with DMSO or herbicide in vitro; format: biochemical; settings: 0.5 μM, spermidine in substrate mix
Text: as §1, §2
(§5) Protein of Escherichia coli BioA (SEQ ID NO:159), Pantoea ananatis BioA (SEQ ID NO:167), Streptomyces viridochromogenes BioA (SEQ ID NO:170), Cryptosporidium andersoni BioA (SEQ ID NO:160), Stenotrophomonas maltophilia BioA (SEQ ID NO:171), Chroococcidiopsis BioA (SEQ ID NO:184), Pedobacter hartonius BioA (SEQ ID NO:181), Chitinophaga filiformis BioA (SEQ ID NO:180), Tenacibaculum adriaticum BioA (SEQ ID NO:185) and Bacillus subtilis BioA (SEQ ID NO:166) was prepared using the method in Example 6. BioA enzyme activity in the presence of herbicide or DMSO in vitro for each of the proteins was assayed according to the enzyme assay method in Example 6, except in some reactions spermidine was replaced with 2 mM S-Adenosyl methionine.

[2] = system: Chitinophaga filiformis BioA; test: as above; format: biochemical; settings: 0.5 μM, spermidine in substrate mix
Text: as §1, §2, §5

Escherichia coli BioA = biological target: T1, Escherichia coli BioA (Escherichia coli, UniProt P12995); test: as above; format: biochemical; settings: 0.5 μM, SAM in substrate mix, read-out: % Inhibition relative to DMSO treatment
T1 construct: 6xHis-tag (N); thrombin cleavage site (N); made in house; host or cells: E. coli BL21 (DE3) bioA
T1 sequence (P12995 whole entry): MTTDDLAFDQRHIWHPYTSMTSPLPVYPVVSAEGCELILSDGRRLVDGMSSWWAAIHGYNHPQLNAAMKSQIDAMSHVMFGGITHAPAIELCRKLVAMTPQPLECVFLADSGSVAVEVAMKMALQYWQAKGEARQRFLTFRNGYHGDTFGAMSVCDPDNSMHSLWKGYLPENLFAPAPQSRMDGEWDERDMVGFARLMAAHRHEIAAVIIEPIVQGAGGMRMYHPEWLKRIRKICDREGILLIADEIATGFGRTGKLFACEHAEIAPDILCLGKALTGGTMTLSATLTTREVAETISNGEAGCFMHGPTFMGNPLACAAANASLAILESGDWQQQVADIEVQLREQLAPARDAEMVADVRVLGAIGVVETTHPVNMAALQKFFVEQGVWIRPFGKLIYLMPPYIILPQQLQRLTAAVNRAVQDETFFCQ
Text: as §1, §2, §5

Pantoea ananatis BioA = test: as above; format: biochemical; settings: 0.5 μM, SAM in substrate mix
Text: as §1, §2, §5

[3] = system: Pedobacter hartonius BioA; test: as above; format: biochemical; settings: 0.5 μM, spermidine in substrate mix
Text: as §1, §2, §5

[4] = system: Stenotrophomonas maltophilia BioA; test: as above; format: biochemical; settings: 0.5 μM, spermidine in substrate mix
Text: as §1, §2, §5

[5] = system: Streptomyces viridochromogenes BioA; test: as above; format: biochemical; settings: 0.5 μM, SAM in substrate mix
Text: as §1, §2, §5

[6] = system: Tenacibaculum adriaticum BioA; test: as above; format: biochemical; settings: 0.5 μM, spermidine in substrate mix
Text: as §1, §2, §5

Chroococcidiopsis BioA = test: as above; format: biochemical, Chroococcidiopsis sp. CCMEE 29; settings: 0.5 μM, spermidine in substrate mix
Text: as §1, §2, §5

`CCn1c(-c2ccc(Cl)c(Cl)c2)c(C(=O)O)c(=O)c2cc(F)ccc21` [Compound M, 2-(3,4-dichlorophenyl)-1-ethyl-6-fluoro-4-oxo-quinoline-3-carboxylic acid] was tested, and the “% Inhibition relative to DMSO treatment” value (Quercus robur BioDA) was 22%, the “% Inhibition relative to DMSO treatment” value ([1]; 0.5 μM) was 15% and the “% Inhibition relative to DMSO treatment” value ([1]; 31 μM) was 95%. The “% Inhibition relative to DMSO treatment” value ([1]; 500 μM) was 99%, the “% Inhibition relative to DMSO treatment” value (Bacillus subtilis BioA) was 4% and the “% Inhibition relative to DMSO treatment” value [2] was 0%. For the same compound, the inhibition at 0.5 µM (Escherichia coli BioA) was 0%, the “% Inhibition relative to DMSO treatment” value (Pantoea ananatis BioA) was 11% and the “% Inhibition relative to DMSO treatment” value [3] was 0%. The “% Inhibition relative to DMSO treatment” value [4] was 1%, the “% Inhibition relative to DMSO treatment” value [5] was 0% and the “% Inhibition relative to DMSO treatment” value [6] was 13%. The “% Inhibition relative to DMSO treatment” value (Chroococcidiopsis BioA) was 10%.
